Data as given in patent US20240107999A1, “ANTIBACTERIAL COMPOSITION” (LG CHEM, LTD., priority 2021, published 2024).

Columns and labels:
P. mirabilis (ATCC29906) [1] = test: Antibacterial strength (bacteriostatic reduction rate) by Methods 1 to 4, broth culture absorbance at 600 nm; assay type: cell-based; conditions: Proteus mirabilis, 16 hours, 35° C.; for inhibition of growth at 200 µg/mL: amount of antibacterial composition added 0.005 g in 25 ml broth, 3,000 CFU/ml, read-out: Antibacterial strength (%) Method 2; for inhibition of growth at 400 µg/mL: amount of antibacterial composition added 0.01 g in 25 ml broth, 3,000 CFU/ml, read-out: Antibacterial strength (%) Method 4; for inhibition of growth at 600 µg/mL: amount of antibacterial composition added 0.015 g in 25 ml broth, 3,000 CFU/ml, read-out: Antibacterial strength (%) Method 1; for inhibition of growth at 800 µg/mL: amount of antibacterial composition added 0.02 g in 25 ml broth, 3,000 CFU/ml, read-out: Antibacterial strength (%) Method 3
Experimental: (§1) After 25 ml of a broth-type medium (Nutrient broth, BD DIFCO., 8 g/L) inoculated with 3,000 CFU/ml bacteria is put into a 50 mL conical tube, 0.015 g of the antibacterial composition is added thereto and suspended (by vortexing), a sufficiently mixed solution is incubated for 16 hours in a shaking water bath maintained at 35° C.
(§2) After the incubated solution was diluted to ⅕ using a 1×PBS buffer solution, absorbance (λ=600 nm) was measured using a UV/Vis spectrophotometer, and the antibacterial strength, which is a bacteriostatic reduction rate, is calculated by the following equation by comparing the measured absorbance with a solution incubated without the addition of the antibacterial composition.
(§3) Antibacterial strength(%)=(1−Asample/AReference)×100 • Asample=Absorbance of medium solution incubated by adding antibacterial composition • AReference=Absorbance of medium solution incubated without addition of antibacterial composition
(§4) This method is the same as Method 1, except that 0.005 g of the antibacterial composition is added instead of 0.015 g of the antibacterial composition.
(§5) This method is the same as Method 1, except that 0.02 g of the antibacterial composition is added instead of 0.015 g of the antibacterial composition.
(§6) This method is the same as Method 1, except that 0.01 g of the antibacterial composition is added instead of 0.015 g of the antibacterial composition.
The antibacterial strength of Monomers 1 to 10 and Comparative Monomers 1 and 2 by Methods 1 to 4 was measured, and is shown in the following Table 1. In this case, the P. mirabilis (ATCC29906) bacteria were used.

P. mirabilis (ATCC29906) [2] = test: Time at which 99.9% of the antibacterial strength is confirmed (Methods 1 to 4); assay type: cell-based, Proteus mirabilis; conditions: for Time at which 99.9% of the antibacterial strength is confirmed, Method 2: amount of antibacterial composition added 0.005 g; for Time at which 99.9% of the antibacterial strength is confirmed, Method 4: amount of antibacterial composition added 0.01 g; for Time at which 99.9% of the antibacterial strength is confirmed, Method 1: amount of antibacterial composition added 0.015 g; for Time at which 99.9% of the antibacterial strength is confirmed, Method 3: amount of antibacterial composition added 0.02 g
Experimental: as §1, §2, §3, §4, §5, §6
The time at which 99.9% of the antibacterial strength of Monomers 1 to 10 and Comparative Monomers 1 and 2 is confirmed is shown in the following Table 2.

[3] = Acute oral toxicity dose LD50 by 3T3 Neutral Red Uptake (NRU) assay (OECD Guidance Document No 129); assay type: cell-based; conditions: mouse, 3T3 cells, po, calculated from 3T3 NRU assay
Experimental: (§7) The acute oral toxicity dose LD50 and acute percutaneous toxicity dose LD50 were measured by 3T3 Neutral Red Uptake (NRU) assay (OECD Guidance Document No 129). Specifically, the acute oral toxicity dose LD50 and acute percutaneous toxicity dose LD50 can be calculated by the following method: […]

3T3 = test: as above; assay type: cell-based; conditions: calculated from 3T3 NRU assay
Experimental: as §7

[4] = Acute percutaneous toxicity dose LD50 by 3T3 Neutral Red Uptake (NRU) assay (OECD Guidance Document No 129); assay type: cell-based; conditions: mouse, 3T3 cells, other: percutaneous, calculated from 3T3 NRU assay
Experimental: as §7

Row | Structure (SMILES) | inhibition of growth at 200 µg/mL (P. mirabilis (ATCC29906) [1]) [%] | inhibition of growth at 400 µg/mL (P. mirabilis (ATCC29906) [1]) [%] | inhibition of growth at 600 µg/mL (P. mirabilis (ATCC29906) [1]) [%] | inhibition of growth at 800 µg/mL (P. mirabilis (ATCC29906) [1]) [%] | Time at which 99.9% of the antibacterial strength is confirmed, Method 2 (P. mirabilis (ATCC29906) [2]) | Time at which 99.9% of the antibacterial strength is confirmed, Method 4 (P. mirabilis (ATCC29906) [2]) | Time at which 99.9% of the antibacterial strength is confirmed, Method 1 (P. mirabilis (ATCC29906) [2]) | Time at which 99.9% of the antibacterial strength is confirmed, Method 3 (P. mirabilis (ATCC29906) [2]) | LD50 [3] [mg/kg] | Acute oral toxicity dose (mg/Kg) LD50 (3T3) | LD50 [4] [mg/kg]
1 | C=C(C)C(=O)OCC[N+](CCCCCC)(CCCCCC)CCCCCCCCCC [Monomer 5] | 99.9 | 99.9 | 99.9 | 99.9 | Within 1 hour | Within 1 hour | Within 1 hour | Within 1 hour | ≥ 1000 | 1,078 mg/Kg | ≥ 2000
2 | C=CC(=O)OCCCC[N+](CCCCCCCC)(CCCCCCCC)CCCCCCCC [Monomer 10] | 99.9 | 99.9 | 99.9 | 99.9 | Within 1 hour | Within 1 hour | Within 1 hour | Within 1 hour | ≥ 1000 | 1,242 mg/Kg | ≥ 2000
3 | C=CC(=O)OCCCC[N+](CCCC)(CCCC)CCCCCCCC [Monomer 9] | 61.2 | 70 | 99.9 | 99.9 | – | – | Within 1 hour | Within 1 hour | ≥ 1000 | 1,498 mg/Kg | ≥ 2000
4 | C=CC(=O)OCC[N+](CCCC)(CCCC)CCCCCCCCCC [Monomer 2] | 99.9 | 99.9 | 99.9 | 99.9 | Within 1 hour | Within 1 hour | Within 1 hour | Within 1 hour | ≥ 1000 | 1,369 mg/Kg | ≥ 2000
5 | C=CC(=O)OCC[N+](CCCC)(CCCC)CCCCCCCCCCCC [Monomer 3] | 99.9 | 99.9 | 99.9 | – | Within 1 hour | Within 1 hour | Within 1 hour | Within 1 hour | 843 | – | ≥ 2000
6 | C=C(C)C(=O)OCC[N+](CCCC)(CCCCCCCCCC)CCCCCCCCCC [Monomer 8] | 99.9 | 99.9 | 99.9 | 99.9 | Within 1 hour | Within 1 hour | Within 1 hour | Within 1 hour | 869 | – | ≥ 2000
